Usually pIC50 stands for −log10 of the IC50, conventionally taken in molar units. As usually defined, the pKi is the negative decadic logarithm of the Ki, by convention in mol/L.

pIC50, pKi: −log10 of the molar value.

This passage reports IC50 and Ki results from ChEMBL document CHEMBL1909046, “DrugMatrix in vitro pharmacology data”.

A short description of data set [1]: DRUGMATRIX: beta-Lactamase enzyme inhibition (substrate: Nitrocefin). Also noted: species or system Bacillus cereus. As to conditions: Not Active = under 50% inhibition at 10 µM.
Another data set deals with Histamine H2 receptor (Homo sapiens, UniProt P25021). The data set is classed as cell membranes, CHO-K1, Membrane.
Sequence of Histamine H2 receptor (P25021 whole entry): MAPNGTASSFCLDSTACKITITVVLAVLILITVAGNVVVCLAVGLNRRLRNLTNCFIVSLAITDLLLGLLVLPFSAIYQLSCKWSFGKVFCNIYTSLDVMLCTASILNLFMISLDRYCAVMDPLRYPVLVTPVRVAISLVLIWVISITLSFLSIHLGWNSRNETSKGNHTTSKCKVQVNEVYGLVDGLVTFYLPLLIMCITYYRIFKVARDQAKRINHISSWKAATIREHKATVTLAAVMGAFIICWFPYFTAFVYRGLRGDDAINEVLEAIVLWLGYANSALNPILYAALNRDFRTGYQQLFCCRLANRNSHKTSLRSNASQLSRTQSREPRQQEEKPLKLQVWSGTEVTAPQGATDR
A short description of data set [2]: DRUGMATRIX: Platelet-Derived Growth Factor (PDGF) radioligand binding (ligand: [125I] PDGF). The data set is classed as cell-based. As to conditions: nih3t3; Not Active = under 50% inhibition at 10 µM.
Another data set has as its target T1, Cathepsin G (Homo sapiens, UniProt P08311).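 Also: inhibition of Cathepsin G enzyme activity, tested on an AMC-conjugated peptide substrate; in other assays of this panel Not Active means under 50% inhibition at 10 µM.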
T1 sequence (P08311 whole entry): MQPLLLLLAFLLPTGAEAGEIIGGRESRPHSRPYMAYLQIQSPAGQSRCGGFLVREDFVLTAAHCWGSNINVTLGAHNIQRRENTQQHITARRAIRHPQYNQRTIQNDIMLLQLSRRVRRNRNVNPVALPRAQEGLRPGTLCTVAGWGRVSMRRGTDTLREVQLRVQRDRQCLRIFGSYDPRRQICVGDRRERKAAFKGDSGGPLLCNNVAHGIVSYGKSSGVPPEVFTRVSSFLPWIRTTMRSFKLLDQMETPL
The format is tissue-based. Particulars: neutrophil.

For data set [3], the target named is Protein kinase C alpha type (Homo sapiens, UniProt P17252). The format is cell-based. As to conditions: sf9.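 Also: inhibition of PKCalpha kinase activity measured in an enzyme assay with histone as the phosphorylation substrate; in other assays of this panel Not Active means under 50% inhibition at 10 µM.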
Data set [4] has as its target Tyrosine-protein kinase Lck (Homo sapiens, UniProt P06239). Nature of the data set: DRUGMATRIX: Protein Tyrosine Kinase, LCK enzyme inhibition (substrate: Poly(Glu:Tyr)). The data set is classed as cell-based, Insect cells. As to conditions: insect cells; Not Active = under 50% inhibition at 10 µM.
The target of a further data set is Cytochrome P450 2C19 (Homo sapiens, UniProt P33261). As to conditions: bti-tn-5b1-4. Also: in other assays of this panel Not Active means under 50% inhibition at 10 µM.
Sequence of Cytochrome P450 2C19 (P33261 whole entry): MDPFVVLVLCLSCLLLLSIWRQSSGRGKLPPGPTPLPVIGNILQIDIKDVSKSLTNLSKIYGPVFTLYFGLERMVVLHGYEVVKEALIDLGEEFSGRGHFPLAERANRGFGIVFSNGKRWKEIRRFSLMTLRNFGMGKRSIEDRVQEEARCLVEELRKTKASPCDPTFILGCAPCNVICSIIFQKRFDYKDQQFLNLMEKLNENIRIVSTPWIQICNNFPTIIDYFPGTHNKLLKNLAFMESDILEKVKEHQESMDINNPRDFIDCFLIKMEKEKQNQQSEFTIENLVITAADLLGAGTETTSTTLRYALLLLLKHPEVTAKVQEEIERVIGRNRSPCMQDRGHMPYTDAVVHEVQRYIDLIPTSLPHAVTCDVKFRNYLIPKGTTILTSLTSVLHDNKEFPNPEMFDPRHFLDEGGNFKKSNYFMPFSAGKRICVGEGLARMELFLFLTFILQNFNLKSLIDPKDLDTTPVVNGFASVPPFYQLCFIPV

Sequence of Tyrosine-protein kinase Lck (P06239 whole entry): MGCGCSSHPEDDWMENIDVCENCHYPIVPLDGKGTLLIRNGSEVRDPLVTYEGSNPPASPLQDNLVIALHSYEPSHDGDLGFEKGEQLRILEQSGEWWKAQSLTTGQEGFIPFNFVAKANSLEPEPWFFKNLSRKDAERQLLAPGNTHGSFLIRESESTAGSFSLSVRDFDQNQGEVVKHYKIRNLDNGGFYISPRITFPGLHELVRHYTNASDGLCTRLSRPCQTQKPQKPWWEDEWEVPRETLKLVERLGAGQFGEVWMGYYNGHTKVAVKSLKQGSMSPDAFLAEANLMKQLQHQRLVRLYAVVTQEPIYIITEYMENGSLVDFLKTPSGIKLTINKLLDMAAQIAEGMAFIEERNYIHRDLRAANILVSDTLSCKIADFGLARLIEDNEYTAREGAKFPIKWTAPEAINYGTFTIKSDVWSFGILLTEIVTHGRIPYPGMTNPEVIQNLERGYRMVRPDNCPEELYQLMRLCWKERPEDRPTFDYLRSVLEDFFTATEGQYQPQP

With `COc1cc2c3cc1Oc1cc(ccc1O)C[C@@H]1c4c(cc(OC)c(O)c4Oc4ccc(cc4)C[C@@H]3N(C)CC2)CC[N+]1(C)C.[Cl-]`, the IC50 result (in data set [1]; at Histamine H2 receptor (cho-k1); in data set [2]; at Cathepsin G; in data set [3]; in data set [4]) was “Not Active” in each case. For the same compound, the IC50 result at Cytochrome P450 2C19 is “Not Active”. Moreover, the Ki entry (in data set [1]; in data set [2]; at Cytochrome P450 2C19) was “Not Active” in each case.
In the case of `CN(Cc1ccc(C(C)(C)C)cc1)Cc1cccc2ccccc12` [BUTENAFINE], the IC50 result (in data set [1]; against Histamine H2 receptor (cho-k1); in data set [2]; against Cathepsin G; in data set [3]; in data set [4]) was “Not Active” in each case. In addition, the IC50 result at Cytochrome P450 2C19 is recorded as “Not Active”. The Ki entry (in data set [1]; in data set [2]; on Cytochrome P450 2C19) was “Not Active” throughout.
Take `CC(C)(Oc1ccc(Cl)cc1)C(=O)O` [CLOFIBRIC ACID]: the IC50 entry (in data set [1]; against Histamine H2 receptor (cho-k1); in data set [2]; at Cathepsin G; in data set [3]; in data set [4]) was “Not Active” throughout. Besides, the Ki result in data set [1] and in data set [2] was “Not Active” throughout.
For `CCOc1ccc(NC(C)=O)cc1` [PHENACETIN], the IC50 entry (in data set [1]; against Histamine H2 receptor (cho-k1); in data set [2]; against Cathepsin G; in data set [3]; in data set [4]) was “Not Active” each time. Further, the Ki entry in data set [1] and in data set [2] was “Not Active” throughout.
With `C[C@]12CC[C@@H]3c4ccc(O)cc4CC[C@H]3[C@@H]1CCC2=O` [ESTRONE], the IC50 result (in data set [1]; on Histamine H2 receptor (cho-k1); in data set [2]; against Cathepsin G; in data set [3]; in data set [4]) was “Not Active” each time. The Ki entry in data set [1] and in data set [2] was “Not Active” each time.
Regarding `CN(C)c1nc(N(C)C)nc(N(C)C)n1` [ALTRETAMINE], the IC50 entry (in data set [1]; against Histamine H2 receptor (cho-k1); in data set [2]; on Cathepsin G; in data set [3]; in data set [4]) was “Not Active” each time. The Ki result in data set [1] and in data set [2] was “Not Active” each time.
As for `CCn1cc(C(=O)O)c(=O)c2cc(F)c(N3CCNCC3)cc21` [NORFLOXACIN], the IC50 result (in data set [1]; on Histamine H2 receptor (cho-k1); in data set [2]; against Cathepsin G; in data set [3]; in data set [4]) was “Not Active” throughout. Also, the Ki result in data set [1] and in data set [2] was “Not Active” each time.
On to `CN(C)CCCN1c2ccccc2Sc2ccc(Cl)cc21` [CHLORPROMAZINE], for which the IC50 result (in data set [1]; in data set [2]; at Cathepsin G; in data set [3]; in data set [4]) was “Not Active” in each case. Besides, the Ki result in data set [1] and in data set [2] was “Not Active” in each case.
As to `CN(C)CCCN1c2ccccc2Sc2ccccc21` [PROMAZINE], the IC50 result (in data set [1]; in data set [2]; on Cathepsin G; in data set [3]; in data set [4]) was “Not Active” in each case. The Ki entry in data set [1] and in data set [2] was “Not Active” throughout. Moreover, at Histamine H2 receptor (read-out: IC50), the pIC50 is 5.54. Also, the negative logarithm of the Ki (pKi) at Histamine H2 receptor (read-out: Ki) was 5.55.
Regarding `N=C(N)NCCN1CCCCCCC1` [GUANETHIDINE], the IC50 entry (in data set [1]; against Histamine H2 receptor (cho-k1); in data set [2]; against Cathepsin G; in data set [3]; in data set [4]) was “Not Active” in each case. The Ki entry in data set [1] and in data set [2] was “Not Active” each time.
For `C[C@H](CCC(=O)O)[C@H]1CC[C@H]2[C@@H]3[C@H](O)C[C@@H]4C[C@H](O)CC[C@]4(C)[C@H]3C[C@H](O)[C@]12C` [CHOLIC ACID], the IC50 entry (in data set [1]; at Histamine H2 receptor (cho-k1); in data set [2]; on Cathepsin G; in data set [3]; in data set [4]) was “Not Active” in each case. The Ki entry in data set [1] and in data set [2] was “Not Active” each time.
For the compound CADMIUM ACETATE, the IC50 result (in data set [1]; against Histamine H2 receptor (cho-k1); in data set [2]; on Cathepsin G; in data set [3]; against Cytochrome P450 2C19) was “Not Active” in each case. Besides, the Ki entry (in data set [1]; at Histamine H2 receptor (cho-k1); in data set [2]; on Cathepsin G; in data set [3]; on Cytochrome P450 2C19) was “Not Active” each time.
As to `CC(C)[C@@]1(NC(=O)[C@@H]2C[C@@H]3c4cccc5[nH]cc(c45)C[C@H]3N(C)C2)O[C@@]2(O)[C@@H]3CCCN3C(=O)[C@H](Cc3ccccc3)N2C1=O.CS(=O)(=O)O` [DIHYDROERGOCRISTINE MESYLATE], the IC50 result (in data set [1]; on Histamine H2 receptor (cho-k1); in data set [2]; at Cathepsin G; in data set [3]; in data set [4]) was “Not Active” each time. For the same compound, the Ki result in data set [1] and in data set [2] was “Not Active” each time.
For `Nc1c(Br)cc(Br)cc1CN[C@H]1CC[C@H](O)CC1` [AMBROXOL], the IC50 entry (in data set [1]; against Histamine H2 receptor (cho-k1); in data set [2]; at Cathepsin G; in data set [3]; in data set [4]) was “Not Active” each time. In addition, the Ki result in data set [1] and in data set [2] was “Not Active” each time.
In the case of `Nc1ncn([C@@H]2O[C@H](CO)[C@@H](O)[C@H]2O)c(=O)n1` [AZACITIDINE], the IC50 result (in data set [1]; at Histamine H2 receptor (cho-k1); in data set [2]; on Cathepsin G; in data set [3]; in data set [4]) was “Not Active” each time. The Ki entry in data set [1] and in data set [2] was “Not Active” each time.
Turning to `CC(NC(C)(C)C)C(=O)c1cccc(Cl)c1` (configuration not stated) [BUPROPION], the IC50 entry (in data set [1]; at Histamine H2 receptor (cho-k1); in data set [2]; against Cathepsin G; in data set [3]; in data set [4]) was “Not Active” throughout. Moreover, the Ki entry in data set [1] and in data set [2] was “Not Active” each time.
For the compound `CC1(C)S[C@@H]2[C@H](NC(=O)Cc3ccccc3)C(=O)N2[C@H]1C(=O)O` [PENICILLIN G], the IC50 result (in data set [1]; at Histamine H2 receptor (cho-k1); in data set [2]; on Cathepsin G; in data set [3]; in data set [4]) was “Not Active” each time. The Ki entry in data set [1] and in data set [2] was “Not Active” throughout.
Turning to `COCCc1ccc(OCC(O)CNC(C)C)cc1` (configuration not stated) [METOPROLOL], the IC50 result (in data set [1]; against Histamine H2 receptor (cho-k1); in data set [2]; at Cathepsin G; in data set [3]; in data set [4]) was “Not Active” each time. Further, the Ki result in data set [1] and in data set [2] was “Not Active” each time.
